“And” between values parts separate entries of the source, which are not always exact repeats. Identical values can stand only once.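 Results reflect a 48-hour exposure of cells in 96-well plates to compound at five concentrations. The concentration for 50% growth inhibition is given as GI50. TGI: concentration producing complete growth inhibition.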
What was measured:
Experiment in all cases: NCI-60 cell line screen, 48 h
CCRF-CEM leukemia = system: CCRF-CEM leukemia
DU-145 prostate = system: DU-145 prostate
HCT-15 colon = system: HCT-15 colon
HL-60(TB) leukemia = system: HL-60(TB) leukemia
MOLT-4 leukemia = system: MOLT-4 leukemia
NCI-H23 lung = system: NCI-H23 lung
OVCAR-4 ovarian = system: OVCAR-4 ovarian
SF-268 CNS = system: SF-268 CNS
SK-MEL-2 melanoma = system: SK-MEL-2 melanoma
UO-31 renal = system: UO-31 renal

Structure (SMILES) | GI50 (CCRF-CEM leukemia) | TGI (CCRF-CEM leukemia) [µM] | GI50 (DU-145 prostate) | TGI (DU-145 prostate) [µM] | GI50 (HCT-15 colon) | TGI (HCT-15 colon) [µM] | GI50 (HL-60(TB) leukemia) | TGI (HL-60(TB) leukemia) | GI50 (MOLT-4 leukemia) | TGI (MOLT-4 leukemia) [µM] | GI50 (NCI-H23 lung) | TGI (NCI-H23 lung) [µM] | GI50 (OVCAR-4 ovarian) | TGI (OVCAR-4 ovarian) [µM] | GI50 (SF-268 CNS) | TGI (SF-268 CNS) [µM] | GI50 (SK-MEL-2 melanoma) [µM] | TGI (SK-MEL-2 melanoma) [µM] | GI50 (UO-31 renal) [µM] | TGI (UO-31 renal) [µM]
COc1ccccc1Nc1cc(O)c2c(=O)cc(-c3ccccc3)oc2c1 | 3.57 µM | > 100 | 4.35 µM | 16.4 | 1.65 µM | > 100 | 2.79 µM | 34.9 µM | 4.08 µM | > 100 | 4.22 µM | 52.6 | 4.49 µM | 47.8 | 4.71 µM | 48.2 | 5.62 | 34.2 | 3.57 | 21.5
Oc1c(Cl)cc(Cl)c(Cl)c1CNCCNCc1c(O)c(Cl)cc(Cl)c1Cl | 0.231 µM | > 50 | 2.09 µM | 12.6 | 0.282 µM | 11.6 | 0.63 µM | 2.84 µM | 0.561 µM | > 50 | 1.42 µM | 9.08 | 0.41 µM | 7.87 | 0.997 µM | 12.1 | 3.4 | 14.1 | 0.625 | 6.42
CC(C)C[C@H](NC(=O)CNC(=O)c1cc(Cl)ccc1Cl)B(O)O | 0.0203 µM | > 100 | < 0.0262 µM | 15.3 | 0.0272 µM | – | < 0.0167 µM | 0.212 µM | 0.0187 µM | 0.0797 | 0.0282 µM | – | 0.061 µM | 5.45 | 0.0343 µM | 0.22 | < 0.0145 | 0.0364 | < 0.0131 | 0.0406
Cc1onc(-c2ccccc2)c1C(=O)N/N=C/c1cc(Cl)cc(Cl)c1O | 1.48 µM | 14.7 | 6.72 µM | > 100 | 2.05 µM | > 100 | 2.61 µM | 7.32 µM | 3.53 µM | 22.9 | 10.6 µM | 67.9 | 2.07 µM | > 100 | 3.44 µM | > 100 | 11.5 | 56 | 1.83 | 12.9
O=C1N[C@@H]2[C@@H](O)[C@@H](O)[C@H](O)C[C@H]2c2cc3c(c(O)c21)OCCO3 | 0.0737 µM | 1.83 | 0.229 µM | 0.84 | 0.27 µM | 1.8 | 0.19 µM | 0.599 µM | 0.193 µM | 3.16 | 0.238 µM | 0.915 | 0.217 µM | 0.838 | 0.247 µM | 1.08 | 0.286 | 1.06 | 0.294 | 1.72
COc1ccc2c(c1)C(=O)c1c-2n(CCCN(C)C)c(=O)c2ccccc12 | 0.077 µM | 0.629 | 0.249 µM | 2.82 | 0.25 µM | 3.95 | 0.321 µM | 2.64 µM | < 0.0307 µM | 12 | 0.318 µM | 1.31 | 0.808 µM | 6.87 | 0.258 µM | 2.84 | 1.86 | 7.18 | 0.167 | 0.811
Cc1c(-c2cnccn2)ssc1=S | – | > 77.4 | – | > 100 | – | > 100 | – | > 77.4 µM | – | > 100 | – | > 100 | – | > 100 | – | 99 | – | > 100 | – | > 89.7
CN(Cc1ccccc1)Cn1ccnc1 | – | > 71.2 | – | > 100 | – | > 100 | – | > 100 µM | – | > 100 | – | > 100 | – | > 100 | – | > 100 | – | > 100 | – | > 100
Cc1ccc(O)c(NC(=O)c2cccc(Nc3ccnc(C(F)(F)F)c3)c2)c1 | 1.82 µM | 39.2 | 16.4 µM | 71.5 | 15.5 µM | 42.8 | 0.592 µM | 11.1 µM | 2.02 µM | 8.15 | 2.27 µM | 21.2 | 2.97 µM | 31.2 | 13.3 µM | 39 | 5.28 | 18.9 | 3.03 | 18.1
COc1c/c(=C2\C=c3ccccc3=N2)[nH]/c1=C\c1[nH]c(C)cc1C | < 0.01 µM | 6.64 | 0.0174 µM | > 81.4 | < 0.0225 µM | 4.33 | < 0.0167 µM | 12.8 µM | < 0.0203 µM | – | 0.0986 µM | 7.08 | 0.0638 µM | 4.83 | 0.0631 µM | 37.7 | 0.0753 | 2.27 | < 0.0106 | 0.32
Cc1cc2c(C(=O)NC[C@H](C)c3ccccc3)c(O)c(O)cc2c(O)c1-c1c(C)cc2c(C(=O)NC[C@H](C)c3ccccc3)c(O)c(O)cc2c1O | 0.122 µM | 11 | 0.3 µM | 14.3 | 0.208 µM | 12.6 | 0.901 µM | 8.57 µM | 0.199 µM | 7.8 | 0.0571 µM | 1.65 | 0.446 µM | 8.3 | 0.234 µM | 3.7 | 0.596 | 4.23 | 0.285 | 1.24
CN[C@H]1CN(c2ccc3c(=O)c(C(=O)O)cn(-c4nccs4)c3n2)C[C@@H]1OC | 0.316 µM | > 22.9 | 1.28 µM | 5.28 | 1.13 µM | 7.72 | 0.292 µM | 2.07 µM | 0.126 µM | 1 | 0.34 µM | 2.01 | 2.27 µM | 9.22 | 0.706 µM | 6.49 | 1.51 | 3.56 | 0.566 | 2.93
CC(C)(C)C(=O)OCOP(=O)(NCc1ccccc1)C1CCCN(O)C1=O (stereo unspecified) | 0.558 µM | > 100 | 4.03 µM | > 100 | 2.75 µM | 25.9 | 3.59 µM | 13.7 µM | 2.61 µM | 14.4 | 2.77 µM | 13.4 | 2.1 µM | 71.9 | 2.09 µM | > 100 | 2.85 | 15.6 | 0.349 | 2.99
Oc1ccc(C=Nc2ccccc2O)cc1 | – | > 100 | – | 31.6 | – | > 100 | – | 42.1 µM | – | > 100 | – | > 100 | – | > 100 | – | > 100 | – | 57.3 | – | > 100
COC(COC(N)=O)C1=C(N2CC2)C(=O)C(C)=C(N2CC2)C1=O (stereo unspecified) | – | 24.6 | – | 0.0264 | – | 0.762 | – | 2.72 µM | – | 7.26 | – | 0.0907 | – | 0.413 | – | 0.624 | – | 0.492 | – | 0.0796
NS(=O)(=O)OC[C@H]1C[C@@H](Nc2ccnc3cc(-c4cccc(SC(F)(F)F)c4)nn23)[C@H](O)[C@@H]1O | < 0.0181 µM | 13.2 | 0.029 µM | 0.19 | 0.139 µM | 0.449 | 0.0332 µM | 0.15 µM | 0.166 µM | 0.588 | 0.0338 µM | 0.13 | 0.0274 µM | 0.11 | 0.0265 µM | 0.0711 | 0.0316 | 0.118 | 0.208 | 0.369
O=c1c2c(nc3n1CCS3)[nH]c1cc([N+](=O)[O-])ccc12 | > 100 µM | > 100 | > 100 µM | > 100 | > 100 µM | > 100 | 20.1 µM | > 100 µM | 81.5 µM | > 100 | > 100 µM | > 100 | > 100 µM | > 100 | > 100 µM | > 100 | > 100 | > 100 | > 100 | > 100
CC[C@H](C)[C@H](NC(=O)[C@H]1CCCCN1C)C(=O)N(C)[C@H](C[C@@H](OC(C)=O)c1cccc(C(=O)N[C@@H](Cc2ccccc2)C[C@H](C)C(=O)OC)n1)C(C)C | 0.00495 µM and 0.0025 µM | > 25 | 0.00282 µM and 0.0025 µM | > 25 | 0.00815 µM and 0.00702 µM | 9.64 | 0.0017 µM and < 0.0025 µM | 0.00655 µM and < 0.0025 µM | 0.00811 µM and 0.0111 µM | > 25 | 0.00443 µM and 0.00521 µM | > 25 | 0.0277 µM and 0.0138 µM | > 25 | 0.00498 µM and 0.00661 µM | > 25 | 0.0025 | 10.3 | – | > 25
CC1Cc2c(Cl)ncnc2N(C)c2ccc(Cl)cc21 (stereo unspecified) | 0.51 µM | > 100 | 0.589 µM | > 100 | 0.331 µM | > 100 | 0.403 µM | > 100 µM | 0.382 µM | > 100 | 0.316 µM | 2.2 | 0.422 µM | > 100 | 0.319 µM | 18.2 | 0.28 | 0.836 | 0.337 | > 100
CC(=O)O[C@@H]1C2CCC3C(CC[C@@]4(C)C3CC[C@@H]4C(C)N(C)C)[C@@]2(C)CC[C@@H]1NC(=O)C=C(C)C (stereo partly specified) | 2.07 µM | 6.59 | 4 µM | 16.4 | 1.39 µM | 3.45 | 2.59 µM | 6.19 µM | 2.33 µM | 5.69 | 3.13 µM | 14 | 3.51 µM | 17.2 | 1.56 µM | 3.31 | 2.89 | 6.85 | 1.5 | 3.33
COc1cc(/C=C/c2cc(/C=C/c3ccc(O)c(OC)c3)n(C(=O)c3ccc(Cl)cc3)n2)ccc1O | 1.64 µM | > 100 | 3.03 µM | 13.9 | 1.54 µM | 26.1 | 1.58 µM | 7.62 µM | 1.64 µM | 11.9 | 2.35 µM | 7.95 | 2.02 µM | 34.9 | 2.65 µM | 13.6 | 1.92 | 5.85 | 1.39 | 10.1
O=c1oc2ccc(I)cc2c(=O)n1-c1ccc(Br)cc1F | 1.93 µM | 10.4 | 1.04 µM | 28.8 | 1.28 µM | 7.89 | 0.588 µM | 3.74 µM | 1.59 µM | 5.18 | 0.658 µM | 3.99 | 1.12 µM | 16.5 | 0.673 µM | 8.52 | 0.385 | 2.29 | 0.33 | 2.72
Cc1cc2nc(NCCN)n(Cc3ccc(F)c(Cl)c3)c2cc1C | 12.7 µM | 29.3 | 14.1 µM | 27.4 | 5.74 µM | 19.1 | 2.83 µM | 11.7 µM | 6.42 µM | 22.1 | 14.5 µM | 29.2 | 14 µM | 28.3 | 11.6 µM | 26 | 19.1 | 34 | 10.7 | 24
CCc1ccc(Oc2c(-c3ccc(OCc4ccc(Cl)cc4)cc3O)n[nH]c2C(F)(F)F)cc1 | 2.92 µM | 7.22 | 2.64 µM | 7.44 | 1.6 µM | 3.21 | 2.41 µM | 4.86 µM | 2.46 µM | 5.64 | 1.67 µM | 3.35 | 1.62 µM | 3.31 | 1.74 µM | 3.39 | 1.75 | 3.74 | 1.68 | 3.89
O=c1c2ccccc2sc2c(NCCCNCCO)nc3ccccc3c12 | 1.59 µM | 3.57 | 1.6 µM | 3.33 | 1.57 µM | 3.52 | 1.92 µM | 3.92 µM | 1.26 µM | 3.32 | 2.01 µM | 7.55 | 2.17 µM | 6.37 | 1.69 µM | 4.24 | 1.87 | 3.62 | 1.18 | 3
Cc1nn(CNc2ccccc2C(F)(F)F)c(=S)n1/N=C/c1cccc2cccnc12 | 18.9 µM | > 100 | > 100 µM | > 100 | 24.3 µM | > 100 | 40.6 µM | > 100 µM | 41.6 µM | > 100 | > 100 µM | > 100 | 44.3 µM | > 100 | 32.5 µM | > 100 | > 100 | > 100 | > 100 | > 100
